# Key:
# [1] = test system: Eimeria tenella; test: Anticoccidial activity: preventing coccidial growth in cultures of chick kidney cells inoculated with sporozites; type: cell-based; settings: for anticoccidial activity (in words): cultures of chick kidney cells
# [2] = test system: chick kidney cells; test: Toxic effects on the host cells (chick kidney cells) in the anticoccidial test; type: cell-based; settings: only shows toxic effects at this concentration
# [3] = test system: rumen fluid; test: Inhibition of methane production and shift of volatile fatty acids in incubated rumen fluid (in vitro fermentation of hay); design: species or system steers; settings: for % methane in total gas: 39° C., 15-16 hours, control 8.37; for Ac/Bu: acetate/butyrate, control 3.92; for Ac/Pr: acetate/propionate, control 1.90; for % inhibition of methane / Ac/Bu, expressed as percentage of untreated controls / Ac/Pr, expressed as percentage of untreated controls: relative to untreated controls; for Ac/Bu, expressed as percentage of untreated controls / Ac/Pr, expressed as percentage of untreated controls: signed values
# Procedure: Rumen fluid is collected on a regular routine basis from two steers, which are fed on the same hay-plus-concentrate diet. Sampling time is standarised as far as possible, and the fluid from the two animals is pooled on a 50/50 basis. Large particulate matter is removed by filtering the pooled fluid through four layers of muslin cloth. The filtrate is then diluted in the ratio of one volume of filtrate to three volumes of an artificial rumen fluid (prepared as described by G. L. Bales et al., Journal of Diary Science, 1976, volume 59, page 1850, but omitting acetic acid), and the pH of the mixture is adjusted to 6.9-7.0 with saturated aqueous sodium carbonate solution. Aliquots (50 ml.) of this mixture are dispensed into 100 ml. conical flasks containing dried ground hay (0.5 g.), and each flask is used to test a test compound at a particular concentration.
# The test compound is added to the conical flask as a solution in ethanol, the flask is flushed with carbon dioxide gas, stoppered with a suba-seal, and incubated at 39° C. for 15-16 hours. After one hour, a narrow bore needle is inserted through the suba-seal to relieve the gas pressure, and the needle is withdrawn 30 minutes before the incubation is ended. Fermentation is then stopped by placing the flask in ice, and after 15 minutes cooling, the gas over the liquid is analysed for methane by gas chromatrography. The flask contents are then filtered through a previously dried and weighed sintered glass funnel, the funnel is oven-dried and, by difference, the weight of hay digested is determined. (Blank flasks containing no hay are treated similarly to determine non-cellulose residue). Three samples of the filtrate are analysed by gas chromatography for VFAs, and by comparison with the previously determined, pre-incubationlevel of VFAs, the net VFAs (acetate, propionate and butyrate) produced during the incubation is determined.
# The test process described in Example 2 was repeated, comparing aplasmomycin with Factor B and C. The following results were obtained, expressed as percentages of the values obtained in untreated controls: […]
# [4] = test system: rumen metabolism of sheep; test: Short term effects on the rumen metabolism of sheep (rumen V.F.A. composition); type: in vivo; settings: 6 hours after treatment
# Procedure: The rumen fermentation patterns of a group of sheep were stabilised by feeding them a standard diet of dried grass (2×500 g. per day) for some months. Six test animals were used for each inclusion level of each test compound. […] Samples of rumen fluid were collected by stomach tube from each animal 6 hours after treatment, and analysed by gas-chromatography for acetate, propionate and butyrate.
# [5] = Day 4, 0.25 mg/kg, control 10.2
# [6] = Day 4, 0.25 mg/kg, control 24.0
# [7] = Day 4, 0.25 mg/kg, control 64.5
# [8] = Day 7, 0.25 mg/kg, control 10.7
# [9] = Day 7, 0.25 mg/kg, control 22.9
# [10] = Day 7, 0.25 mg/kg, control 65.6
SMILES,anticoccidial activity (in words) [1],% methane in total gas ([3]; 0.1 μg./ml.) [%],Ac/Bu ([3]; 0.1 μg./ml.),% inhibition of methane ([3]; 1 ppm) [%],"Ac/Bu, expressed as percentage of untreated controls ([3]; 1 ppm)","Ac/Pr, expressed as percentage of untreated controls ([3]; 1 ppm) [percentages]",% inhibition of methane ([3]; 3 ppm) [%],"Ac/Bu, expressed as percentage of untreated controls ([3]; 3 ppm)","Ac/Pr, expressed as percentage of untreated controls ([3]; 3 ppm) [percentages]","Molar % rumen V.F.A.: Butyrate [4, 5] [Molar %]","Molar % rumen V.F.A.: Propionate [4, 6] [Molar %]","Molar % rumen V.F.A.: Acetate [4, 7] [Molar %]","Molar % rumen V.F.A.: Butyrate ([4]; Day 4, 0.5 mg/kg, control 10.2) [Molar %]","Molar % rumen V.F.A.: Propionate ([4]; Day 4, 0.5 mg/kg, control 24.0) [Molar %]","Molar % rumen V.F.A.: Acetate ([4]; Day 4, 0.5 mg/kg, control 64.5) [Molar %]","Molar % rumen V.F.A.: Butyrate [4, 8] [Molar %]","Molar % rumen V.F.A.: Propionate [4, 9] [Molar %]","Molar % rumen V.F.A.: Butyrate ([4]; Day 7, 0.5 mg/kg, control 10.7) [Molar %]","Molar % rumen V.F.A.: Propionate ([4]; Day 7, 0.5 mg/kg, control 22.9) [Molar %]","Molar % rumen V.F.A.: Acetate ([4]; Day 7, 0.5 mg/kg, control 65.6) [Molar %]",other results
"C[C@@H]1CC[C@@H]2O[C@]13O[B-]14O[C@H]3C(=O)O[C@H]3C[C@@H](/C=C/C[C@@H](O)C(C)(C)[C@@H]5CC[C@@H](C)[C@](O5)(O1)[C@@H](O4)C(=O)O[C@H]1C[C@@H](/C=C/C[C@@H](O)C2(C)C)O[C@@H]1C)O[C@@H]3C.[Na+] [Aplasmomycin, aplasmomycin]",show anticoccidial activity,7.87,4.22,57,-36 percentages,-41,69,-49 percentages,-40,9.8,25.1,63.7,9.9,25.5,63.4,9.9,24.8,9.2,26.6,62.6,"concentration showing activity against Eimeria tenella ([1]; cultures of chick kidney cells inoculated with sporozites): 0.037 ppm; concentration showing toxic effects on the host cells [2]: 9 ppm; Ac/Pr ([3]; 0.1 μg./ml.): 1.63; % methane in total gas ([3]; 0.3 μg./ml.): 5.72%; Ac/Bu ([3]; 0.3 μg./ml.): 4.75; Ac/Pr ([3]; 0.3 μg./ml.): 1.36; % methane in total gas ([3]; 0.5 μg./ml.): 4.87%; Ac/Bu ([3]; 0.5 μg./ml.): 4.56; Ac/Pr ([3]; 0.5 μg./ml.): 1.29; % methane in total gas ([3]; 1 μg./ml.): 3.81%; Ac/Bu ([3]; 1 μg./ml.): 4.26; Ac/Pr ([3]; 1 μg./ml.): 1.26; % methane in total gas ([3]; 3 μg./ml.): 2.58%; Ac/Bu ([3]; 3 μg./ml.): 3.52; Ac/Pr ([3]; 3 μg./ml.): 1.34; effect on the overall digestive process (in words) ([3]; rumen fluid, weight of hay digested): without at the same time depressing the overall digestive process; Molar % rumen V.F.A.: Acetate [4, 10]: 63.8 Molar %"
CC(=O)OC1C/C=C/C2CC(OC(=O)C3O[B-]45OC(C(=O)OC6CC(/C=C/CC(O)C(C)(C)C7CCC(C)C3(O7)O4)OC6C)C3(OC(CCC3C)C1(C)C)O5)C(C)O2 (centres unmarked) [Factor B],show anticoccidial activity,,,63,+21 percentages,-48,76,-18 percentages,-45,11.3,22.3,65.1,11.3,22.4,65.0,11.7,22.1,8.9,25.9,63.5,"Molar % rumen V.F.A.: Acetate [4, 10]: 63.5 Molar %"
CC(=O)OC1C/C=C/C2CC(OC(=O)C3O[B-]45OC(C(=O)OC6CC(/C=C/CC(OC(C)=O)C(C)(C)C7CCC(C)C3(O7)O4)OC6C)C3(OC(CCC3C)C1(C)C)O5)C(C)O2 (centres unmarked) [Factor C],show anticoccidial activity,,,15,+18 percentages,-33,44,+22 percentages,-41,,,,,,,,,,,,
"CC[C@@]1([C@@H]2O[C@@H]([C@H]3O[C@@](O)(CO)[C@H](C)C[C@@H]3C)C[C@@H]2C)CC[C@H]([C@]2(C)CC[C@]3(C[C@H](O)[C@@H](C)[C@@H]([C@@H](C)[C@@H](OC)[C@H](C)C(=O)O)O3)O2)O1 [Monensin, monensin, reference compound]",,8.35,4.22,,,,,,,9.9,28.5,60.5,11.3,27.8,59.8,11.4,26.1,12.6,26.2,60.2,Ac/Pr ([3]; 0.1 μg./ml.): 1.80; % methane in total gas ([3]; 0.3 μg./ml.): 7.53%; Ac/Bu ([3]; 0.3 μg./ml.): 4.11; Ac/Pr ([3]; 0.3 μg./ml.): 1.65; % methane in total gas ([3]; 0.5 μg./ml.): 6.75%; Ac/Bu ([3]; 0.5 μg./ml.): 4.03; Ac/Pr ([3]; 0.5 μg./ml.): 1.61; % methane in total gas ([3]; 1 μg./ml.): 5.62%; Ac/Bu ([3]; 1 μg./ml.): 3.21; Ac/Pr ([3]; 1 μg./ml.): 1.51; % methane in total gas ([3]; 3 μg./ml.): 4.53%; Ac/Bu ([3]; 3 μg./ml.): 3.39; Ac/Pr ([3]; 3 μg./ml.): 1.54

# From patent US4225593A, “Growth promotion” (Imperial Chemical Industries Limited, priority 1977, dated 1980)
